Assay results from US20260008760A1, “DIPEPTIDYL PEPTIDASE 1 INHIBITORS AND USES THEREOF” (Insmed Incorporated, priority 2024, published 2026).
Several values for one entry are separate records, joined by “and”; a condition that tells them apart may be missing. Identical values can stand only once.

How the values were obtained:
active mouse DPP1 enzyme = biological target: T1, active mouse DPP1 enzyme (Mus musculus, UniProt P97821); assay: Mouse DPP1 Enzyme IC50 Assay; format: biochemical; conditions: active mouse DPP1 enzyme, H-Gly-Arg-AMC substrate, 10 minutes pre-incubation at 37° C., pH 5.5; average of n runs; read-out: Avg. IC50 (Mouse DPP1 enzyme IC50 value ranges)
T1 construct: Each subunit is composed of an N-terminal fragment, a heavy chain and a light chain; purchased R&D Systems
T1 sequence (P97821 25-134 limits assumed): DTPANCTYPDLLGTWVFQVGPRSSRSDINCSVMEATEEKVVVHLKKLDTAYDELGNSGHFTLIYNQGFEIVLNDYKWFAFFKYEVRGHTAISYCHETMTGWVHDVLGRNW
T1 sequence (P97821 231-393 limits assumed): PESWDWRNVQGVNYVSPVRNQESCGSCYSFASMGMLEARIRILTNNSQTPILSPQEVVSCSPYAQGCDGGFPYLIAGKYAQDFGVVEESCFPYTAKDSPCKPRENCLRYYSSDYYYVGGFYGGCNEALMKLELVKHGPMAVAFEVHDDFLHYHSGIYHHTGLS
T1 sequence (P97821 394-462 limits assumed): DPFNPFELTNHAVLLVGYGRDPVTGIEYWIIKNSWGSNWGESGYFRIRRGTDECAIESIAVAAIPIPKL
Experimental: Example 96: Mouse DPP1 Enzyme IC50 Assay
Test articles were applied to active mouse DPP1 enzyme (R&D Systems; Minneapolis, MN) in Assay Buffer (50 mM MES pH 5.5, 50 mM NaCl, 5 mM DTT) in a total reaction volume of 125 μL. 25 μL of compound in Assay Buffer plus […] was first added to 50 μL of active mouse DPP1 enzyme at a concentration of 62.5 pg/μL and allowed to pre-incubate for 10 minutes at 37° C. after which 50 μL of […] H-Gly-Arg-AMC substrate (Bachem; St. Torrance, CA) was added, giving final substrate concentration of 400 µM and a final DMSO concentration of […]. Substrate cleavage was measured for 90 minutes at 37° C., with fluorescence at Excitation/Emission 350/450 nm measured every 5 minutes. DPP1 concentration was interpolated based on its activity relative to a standard curve of recombinant active mouse DPP enzyme. IC50 values for each compound were calculated via the XLFit (IDBS Version 5.3.1.3) Add-On to Microsoft Excel using the four parameter fit equation y=(A+((B−A)/(1+((C/x)^D)))), which appears as equation number 205 (4 Parameter Logistic Model or Sigmoidal Dose-Response Model) in XLFit. Default constraints were used for each Parameter. IC50 was defined as the compound concentration at which 50% of enzyme activity was inhibited when compared to the no-compound control.
In Table 2, *** represent average IC50≤5 nM, ** represents average IC50 in the range of 5-20 nM, and * represents average IC50 in the range of ≥20 nM, where the designations were made solely based on the average value without taking into account of the standard deviations.

DPP1 in HL-60 cells = DPP1 in HL-60 cells (Homo sapiens, UniProt P53634); assay: DPP1 Cell IC50 assay; format: cell-based; parameters: host or cells: HL-60 cells; conditions: 60 min pre-incubation, H-Gly-Phe-AFC substrate, average of n runs, read-out: Avg. IC50 (DPP1 Cell IC50 value ranges)
Chain of DPP1 in HL-60 cells (P53634 25-463): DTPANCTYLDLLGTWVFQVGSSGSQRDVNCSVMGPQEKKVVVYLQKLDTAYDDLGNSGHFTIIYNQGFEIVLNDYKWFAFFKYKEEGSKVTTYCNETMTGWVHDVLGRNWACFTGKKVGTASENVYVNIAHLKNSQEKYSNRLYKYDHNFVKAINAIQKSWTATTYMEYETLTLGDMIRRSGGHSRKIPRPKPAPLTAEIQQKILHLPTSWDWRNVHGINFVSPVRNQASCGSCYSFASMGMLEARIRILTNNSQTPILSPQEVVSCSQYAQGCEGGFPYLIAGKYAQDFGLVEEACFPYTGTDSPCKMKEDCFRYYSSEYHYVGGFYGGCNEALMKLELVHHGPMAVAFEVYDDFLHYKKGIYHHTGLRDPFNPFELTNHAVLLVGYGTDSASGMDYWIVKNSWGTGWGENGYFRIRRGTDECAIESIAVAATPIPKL
Procedure, shortened: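 HL-60 cells in PBS (5×10^5 live cells per mL) pre-incubated with compound (0.5% DMSO) 60 min at 37° C, 5% CO2, then H-Gly-Phe-AFC substrate (500 μM stock) added for 30 min. Fluorescence at 400/505 nm; % inhibition vs vehicle wells, IC50 from four-parameter logistic fit.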

human DPP1 enzyme = human DPP1 enzyme (Homo sapiens, UniProt P53634); assay: Human DPP1 Enzyme IC50 Assay; format: biochemical; parameters: was first proteolytically processed into its mature form using recombinant human cathepsin L; purchased R&D Systems; conditions: activated recombinant human DPP1, 400 μM H-Gly-Arg-AMC, 10 minutes pre-incubation at 37° C., pH 6.0; average of n runs; read-out: Avg. IC50 (Human DPP1 enzyme IC50 value ranges)
Chain of human DPP1 enzyme (P53634 25-134 limits assumed): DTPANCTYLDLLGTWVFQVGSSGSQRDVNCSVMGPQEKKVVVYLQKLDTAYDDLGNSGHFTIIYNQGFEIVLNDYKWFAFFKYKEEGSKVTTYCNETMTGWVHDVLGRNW
Chain of human DPP1 enzyme (P53634 231-394 limits assumed): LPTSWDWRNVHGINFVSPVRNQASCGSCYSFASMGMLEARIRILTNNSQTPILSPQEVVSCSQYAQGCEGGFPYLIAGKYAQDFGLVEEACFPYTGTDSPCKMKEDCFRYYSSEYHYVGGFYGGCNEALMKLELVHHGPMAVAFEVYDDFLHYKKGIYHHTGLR
Chain of human DPP1 enzyme (P53634 395-463 limits assumed): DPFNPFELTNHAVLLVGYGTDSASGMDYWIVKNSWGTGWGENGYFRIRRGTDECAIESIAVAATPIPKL
Procedure, shortened: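 Recombinant human DPP1, pre-activated with cathepsin L (pH 4.5), was preincubated with compound 10 min at 37 °C in MES pH 6.0, 50 mM NaCl, 5 mM DTT, 1% DMSO. Cleavage of 400 μM (final) H-Gly-Arg-AMC followed by fluorescence (350/450 nm) over 90 min at 37 °C; IC50 from four-parameter logistic fit versus no-compound control.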

CCN1C(=O)Cc2ccc(-c3ccc(C[C@@H](C#N)NC(=O)[C@@H]4CNCCCO4)cc3)cc21 [Compound 32, (2S)—N-[(1S)-1-cyano-2-[4-(1-ethyl-2-oxo-3H-indol-6-yl)phenyl]ethyl]-1,4-oxazepane-2-carboxamide]
IC50 (active mouse DPP1 enzyme): > 20 nM

CN1C(=O)C2(CCCN(C3COC3)C2)c2cc(-c3ccc(C[C@@H](C#N)NC(=O)[C@@H]4CNCCCO4)cc3)ccc21 (stereo partly drawn) [Compound 28, (2S)—N-[(1S)-1-cyano-2-{4-[1-methyl-1′-(oxetan-3-yl)-2-oxospiro[indole-3,3′-piperidin]-5-yl]phenyl}ethyl]-1,4-oxazepane-2-carboxamide]
IC50 (active mouse DPP1 enzyme): > 20 nM | IC50 (DPP1 in HL-60 cells): > 2.5 nM | IC50 (human DPP1 enzyme): > 15 nM

Cc1cn2cc(-c3ccc(C[C@@H](C#N)NC(=O)[C@@H]4CNCCCCO4)cc3)cc2c(C)n1 [Compound A27, (2S)—N-[(1S)-1-cyano-2-(4-{1,3-dimethylpyrrolo[1,2-a]pyrazin-7-yl}phenyl)ethyl]-1,4-oxazocane-2-carboxamide]
IC50 (active mouse DPP1 enzyme): > 20 nM | IC50 (DPP1 in HL-60 cells): > 2.5 nM and 1 to 2.5 nM | IC50 (human DPP1 enzyme): > 15 nM

CO[C@@H]1CCNC[C@@H](C(=O)N[C@H](C#N)Cc2ccc(-c3cc4c(C)nc(C)cn4c3)cc2F)OC1 [Compound A47, (2S,7R)—N-[(1S)-1-cyano-2-(4-{1,3-dimethylpyrrolo[1,2-a]pyrazin-7-yl}-2-fluorophenyl)ethyl]-7-methoxy-1,4-oxazocane-2-carboxamide]
IC50 (active mouse DPP1 enzyme): < 5 nM | IC50 (DPP1 in HL-60 cells): 1 to 2.5 nM | IC50 (human DPP1 enzyme): < 5 nM

N#C[C@H](Cc1ccc(-c2ccc3c(c2)CCCS3)cc1)NC(=O)[C@@H]1CNCCCO1 [Compound A5, (2S)—N-[(1S)-1-cyano-2-[4-(3,4-dihydro-2H-1-benzothiopyran-6-yl)phenyl]ethyl]-1,4-oxazepane-2-carboxamide]
IC50 (active mouse DPP1 enzyme): > 20 nM | IC50 (DPP1 in HL-60 cells): > 2.5 nM | IC50 (human DPP1 enzyme): > 15 nM

N#C[C@H](Cc1cc2c(cc1F)-c1cc(C3COC3)c(F)cc1CO2)NC(=O)[C@@H]1CNCCCCO1 [Compound B10-B]
IC50 (active mouse DPP1 enzyme): < 5 nM | IC50 (DPP1 in HL-60 cells): 1 to 2.5 nM | IC50 (human DPP1 enzyme): 5 to 15 nM

CO[C@@H]1CCNC[C@@H](C(=O)N[C@H](C#N)Cc2ccc(-c3ccc(C#N)cc3)cc2F)OC1 [Compound F4, (2S,7R)—N—((S)-1-cyano-2-(4′-cyano-3-fluoro-[1,1′-biphenyl]-4-yl)ethyl)-7-methoxy-1,4-oxazocane-2-carboxamide]
IC50 (active mouse DPP1 enzyme): < 5 nM | IC50 (DPP1 in HL-60 cells): < 1 nM | IC50 (human DPP1 enzyme): < 5 nM

Cc1nc(-c2ccc(C[C@@H](C#N)NC(=O)[C@@H]3CNCCCO3)cc2)sc1C#N [Compound 10, (2S)—N-[(1S)-1-cyano-2-[4-(5-cyano-4-methyl-1,3-thiazol-2-yl)phenyl]ethyl]-1,4-oxazepane-2-carboxamide]
IC50 (active mouse DPP1 enzyme): > 20 nM | IC50 (DPP1 in HL-60 cells): > 2.5 nM | IC50 (human DPP1 enzyme): > 15 nM

CN1CCC2(CC1)OC(=O)c1ccc(-c3ccc(C[C@@H](C#N)NC(=O)[C@@H]4CNCCCO4)cc3)cc12 [Compound 14, (2S)—N-[(1S)-1-cyano-2-(4-{1′-methyl-3-oxospiro[2-benzofuran-1,4′-piperidin]-6-yl}phenyl)ethyl]-1,4-oxazepane-2-carboxamide]
IC50 (active mouse DPP1 enzyme): 5 to 20 nM | IC50 (DPP1 in HL-60 cells): > 2.5 nM | IC50 (human DPP1 enzyme): 5 to 15 nM

N#CC(Cc1cc2c(cc1F)-c1ccc(F)cc1CO2)NC(=O)[C@@H]1CNCCCCO1 (mixture of isomers) [Compound B16, (2S)—N-(1-cyano-2-{2,8-difluoro-6H-benzo[c]chromen-3-yl}ethyl)-1,4-oxazocane-2-carboxamide]
IC50 (active mouse DPP1 enzyme): > 20 nM | IC50 (DPP1 in HL-60 cells): > 2.5 nM | IC50 (human DPP1 enzyme): > 15 nM

N#Cc1ccc2c(c1)COc1cc(CC(C#N)NC(=O)[C@@H]3CNCCCCO3)c(F)cc1-2 (stereo partly drawn) [Compound B7, (2S)—N-(1-cyano-2-(8-cyano-2-fluoro-6H-benzo[c]chromen-3-yl)ethyl)-1,4-oxazocane-2-carboxamide]
IC50 (active mouse DPP1 enzyme): > 20 nM | IC50 (DPP1 in HL-60 cells): > 2.5 nM | IC50 (human DPP1 enzyme): > 15 nM

N#C[C@H](Cc1ccc(-c2ccc(S(F)(F)(F)(F)F)cc2)cc1)NC(=O)[C@@H]1CNCCCO1 [Compound 6, (S)—N—((S)-1-cyano-2-(4′-(pentafluoro-16-sulfaneyl)-[1,1′-biphenyl]-4-yl)ethyl)-1,4-oxazepane-2-carboxamide]
IC50 (active mouse DPP1 enzyme): > 20 nM | IC50 (DPP1 in HL-60 cells): > 2.5 nM | IC50 (human DPP1 enzyme): > 15 nM

CN1CCN(Cc2ccc(-c3ccc(C[C@@H](C#N)NC(=O)[C@@H]4CNCCCO4)cc3)cc2)CC1 [Compound 9, (2S)—N-[(1S)-1-cyano-2-{4′-[(4-methylpiperazin-1-yl)methyl]-[1,1′-biphenyl]-4-yl}ethyl]-1,4-oxazepane-2-carboxamide]
IC50 (active mouse DPP1 enzyme): > 20 nM | IC50 (DPP1 in HL-60 cells): > 2.5 nM | IC50 (human DPP1 enzyme): > 15 nM

Cc1cn2cc(-c3ccc(C[C@@H](C#N)NC(=O)[C@@H]4CNCCCO4)cc3)cc2c(C)n1 [Compound A8, (2S)—N-[(1S)-1-cyano-2-(4-{1,3-dimethylpyrrolo[1,2-a]pyrazin-7-yl}phenyl)ethyl]-1,4-oxazepane-2-carboxamide]
IC50 (active mouse DPP1 enzyme): > 20 nM | IC50 (DPP1 in HL-60 cells): > 2.5 nM | IC50 (human DPP1 enzyme): > 15 nM

CN1CCC(n2ncc3ccc(-c4ccc(C[C@@H](C#N)NC(=O)[C@@H]5CNCCCO5)c(F)c4)cc32)CC1 [Compound A3, (2S)—N-[(1S)-1-cyano-2-{2-fluoro-4-[1-(1-methylpiperidin-4-yl)indazol-6-yl]phenyl}ethyl]-1,4-oxazepane-2-carboxamide]
IC50 (active mouse DPP1 enzyme): > 20 nM | IC50 (DPP1 in HL-60 cells): > 2.5 nM | IC50 (human DPP1 enzyme): 5 to 15 nM

N#Cc1ccc(-c2ccc(C[C@@H](C#N)NC(=O)[C@@H]3CNCCCO3)cc2)cc1C(F)(F)F [Compound 7, (2S)—N-[(1S)-1-cyano-2-[4′-cyano-3′-(trifluoromethyl)-[1,1′-biphenyl]-4-yl]ethyl]-1,4-oxazepane-2-carboxamide]
IC50 (active mouse DPP1 enzyme): > 20 nM | IC50 (DPP1 in HL-60 cells): > 2.5 nM | IC50 (human DPP1 enzyme): > 15 nM

N#C[C@H](Cc1ccc(-c2ccc3c(c2)CCNC3=O)cc1)NC(=O)[C@@H]1CNCCCO1 [Compound A2, (2S)—N-[(1S)-1-cyano-2-[4-(1-oxo-3,4-dihydro-2H-isoquinolin-6-yl)phenyl]ethyl]-1,4-oxazepane-2-carboxamide]
IC50 (active mouse DPP1 enzyme): > 20 nM | IC50 (DPP1 in HL-60 cells): > 2.5 nM | IC50 (human DPP1 enzyme): > 15 nM

CN1C(=O)CCc2cc(-c3ccc(C[C@@H](C#N)NC(=O)[C@@H]4CNCCCO4)cc3)ccc21 [Compound A21, (2S)—N-[(1S)-1-cyano-2-[4-(1-methyl-2-oxo-3,4-dihydroquinolin-6-yl)phenyl]ethyl]-1,4-oxazepane-2-carboxamide]
IC50 (active mouse DPP1 enzyme): > 20 nM | IC50 (DPP1 in HL-60 cells): > 2.5 nM | IC50 (human DPP1 enzyme): > 15 nM

N#Cc1ccc(-c2ccc(C[C@@H](C#N)NC(=O)[C@@H]3CNCCCO3)cc2)cc1C1CC1 [Compound 8, (2S)—N-[(1S)-1-cyano-2-{4′-cyano-3′-cyclopropyl-[1,1′-biphenyl]-4-yl}ethyl]-1,4-oxazepane-2-carboxamide]
IC50 (active mouse DPP1 enzyme): > 20 nM | IC50 (DPP1 in HL-60 cells): > 2.5 nM | IC50 (human DPP1 enzyme): > 15 nM

N#C[C@H](Cc1ccc(-c2ccc(C(F)(F)F)cc2)cc1)NC(=O)[C@@H]1CNCCCO1 [Compound 12, (2S)—N-[(1S)-1-cyano-2-[4′-(trifluoromethyl)-[1,1′-biphenyl]-4-yl]ethyl]-1,4-oxazepane-2-carboxamide]
IC50 (active mouse DPP1 enzyme): > 20 nM | IC50 (DPP1 in HL-60 cells): > 2.5 nM | IC50 (human DPP1 enzyme): > 15 nM

Cc1csc(-c2ccc(C[C@@H](C#N)NC(=O)[C@@H]3CNCCCO3)cc2)n1 [Compound 11, (2S)—N-[(1S)-1-cyano-2-[4-(4-methyl-1,3-thiazol-2-yl)phenyl]ethyl]-1,4-oxazepane-2-carboxamide]
IC50 (active mouse DPP1 enzyme): > 20 nM | IC50 (DPP1 in HL-60 cells): > 2.5 nM | IC50 (human DPP1 enzyme): > 15 nM

CN1CCC2(CCc3cc(-c4ccc(C[C@@H](C#N)NC(=O)[C@@H]5CNCCCO5)cc4)ccc32)CC1 [Compound 26, (2S)—N-[(1S)-1-cyano-2-(4-{1′-methyl-2,3-dihydrospiro[indene-1,4′-piperidin]-5-yl}phenyl)ethyl]-1,4-oxazepane-2-carboxamide]
IC50 (active mouse DPP1 enzyme): > 20 nM | IC50 (DPP1 in HL-60 cells): > 2.5 nM | IC50 (human DPP1 enzyme): > 15 nM
